One series concerns the target PI3Kα (Homo sapiens, UniProt P42336). In words: PI3K-alpha fluorescence polarization assay. The conditions noted are these: read-out: PI3Kα Median IC50. The class given is biochemical.
In another series the target is mTOR (Homo sapiens, UniProt P42345). Nature of the series: mTOR enzyme assay (DELFIA format, His6-S6K substrate). The class given is biochemical. The conditions noted are these: read-out: mTOR Kinase Median IC50.
For a further series, the target named is PI3Kγ (Homo sapiens, UniProt P48736). In words: PI3K-gamma fluorescence polarization assay. Type of series: biochemical. The conditions noted are these: read-out: PI3Kγ Median IC50.
Chain of PI3Kγ (P48736 whole entry, species assumed): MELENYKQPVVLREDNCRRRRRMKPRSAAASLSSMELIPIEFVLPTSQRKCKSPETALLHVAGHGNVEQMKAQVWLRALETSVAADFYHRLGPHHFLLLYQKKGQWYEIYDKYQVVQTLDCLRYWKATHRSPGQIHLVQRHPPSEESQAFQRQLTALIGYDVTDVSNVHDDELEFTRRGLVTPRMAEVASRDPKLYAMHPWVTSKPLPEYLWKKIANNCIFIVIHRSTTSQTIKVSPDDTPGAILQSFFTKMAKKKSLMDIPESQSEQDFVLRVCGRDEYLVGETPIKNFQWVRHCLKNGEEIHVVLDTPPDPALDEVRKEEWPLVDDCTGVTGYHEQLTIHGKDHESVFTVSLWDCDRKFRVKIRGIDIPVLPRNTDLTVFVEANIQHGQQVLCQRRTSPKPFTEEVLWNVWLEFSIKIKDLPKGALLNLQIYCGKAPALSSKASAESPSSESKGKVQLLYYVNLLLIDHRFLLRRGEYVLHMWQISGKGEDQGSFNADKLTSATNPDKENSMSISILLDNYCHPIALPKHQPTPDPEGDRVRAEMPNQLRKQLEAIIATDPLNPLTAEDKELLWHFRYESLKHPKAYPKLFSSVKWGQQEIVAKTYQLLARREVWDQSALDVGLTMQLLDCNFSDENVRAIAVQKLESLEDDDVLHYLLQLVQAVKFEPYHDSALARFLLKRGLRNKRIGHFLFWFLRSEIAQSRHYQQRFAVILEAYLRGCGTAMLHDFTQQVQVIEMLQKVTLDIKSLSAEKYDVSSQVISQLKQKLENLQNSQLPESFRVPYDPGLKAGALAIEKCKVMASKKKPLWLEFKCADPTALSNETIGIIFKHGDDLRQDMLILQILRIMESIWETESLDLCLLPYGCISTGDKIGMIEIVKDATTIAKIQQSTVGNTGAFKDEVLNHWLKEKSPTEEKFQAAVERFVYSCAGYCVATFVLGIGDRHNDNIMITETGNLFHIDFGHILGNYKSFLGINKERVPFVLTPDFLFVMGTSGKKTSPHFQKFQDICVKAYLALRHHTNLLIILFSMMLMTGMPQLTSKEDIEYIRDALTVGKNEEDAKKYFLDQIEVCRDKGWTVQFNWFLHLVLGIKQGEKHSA

Molecules are shown by their SMILES. pIC50: −log10 of the molar value.

Chain of PI3Kα (P42336 whole entry, species assumed): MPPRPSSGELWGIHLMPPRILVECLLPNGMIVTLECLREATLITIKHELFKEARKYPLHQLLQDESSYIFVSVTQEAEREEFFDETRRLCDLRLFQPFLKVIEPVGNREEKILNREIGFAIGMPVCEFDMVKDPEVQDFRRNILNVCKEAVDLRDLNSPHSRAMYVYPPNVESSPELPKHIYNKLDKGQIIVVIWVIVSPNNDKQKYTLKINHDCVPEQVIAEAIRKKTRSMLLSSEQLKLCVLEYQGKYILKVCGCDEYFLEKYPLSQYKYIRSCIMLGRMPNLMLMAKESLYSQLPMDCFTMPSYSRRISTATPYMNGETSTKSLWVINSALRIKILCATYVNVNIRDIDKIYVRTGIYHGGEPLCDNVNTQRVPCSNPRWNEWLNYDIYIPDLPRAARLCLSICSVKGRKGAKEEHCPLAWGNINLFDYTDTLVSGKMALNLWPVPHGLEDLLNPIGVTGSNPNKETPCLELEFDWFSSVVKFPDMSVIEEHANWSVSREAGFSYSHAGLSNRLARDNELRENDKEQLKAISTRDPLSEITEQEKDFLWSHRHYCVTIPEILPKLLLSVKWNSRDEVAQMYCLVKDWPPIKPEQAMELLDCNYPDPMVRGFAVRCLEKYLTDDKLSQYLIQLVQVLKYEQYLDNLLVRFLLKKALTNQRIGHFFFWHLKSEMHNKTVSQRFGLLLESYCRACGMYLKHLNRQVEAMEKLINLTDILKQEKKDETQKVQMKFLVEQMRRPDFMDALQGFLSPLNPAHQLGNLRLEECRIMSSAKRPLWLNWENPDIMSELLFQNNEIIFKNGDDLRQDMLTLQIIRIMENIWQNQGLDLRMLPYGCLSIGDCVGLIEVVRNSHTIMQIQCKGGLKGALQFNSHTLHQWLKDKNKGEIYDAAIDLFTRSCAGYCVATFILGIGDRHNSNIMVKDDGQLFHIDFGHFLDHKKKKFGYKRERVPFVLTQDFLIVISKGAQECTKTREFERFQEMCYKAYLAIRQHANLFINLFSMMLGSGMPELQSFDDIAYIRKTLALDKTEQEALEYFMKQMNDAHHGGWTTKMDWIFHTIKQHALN
Chain of PI3Kα (P27986 whole entry partner, species assumed): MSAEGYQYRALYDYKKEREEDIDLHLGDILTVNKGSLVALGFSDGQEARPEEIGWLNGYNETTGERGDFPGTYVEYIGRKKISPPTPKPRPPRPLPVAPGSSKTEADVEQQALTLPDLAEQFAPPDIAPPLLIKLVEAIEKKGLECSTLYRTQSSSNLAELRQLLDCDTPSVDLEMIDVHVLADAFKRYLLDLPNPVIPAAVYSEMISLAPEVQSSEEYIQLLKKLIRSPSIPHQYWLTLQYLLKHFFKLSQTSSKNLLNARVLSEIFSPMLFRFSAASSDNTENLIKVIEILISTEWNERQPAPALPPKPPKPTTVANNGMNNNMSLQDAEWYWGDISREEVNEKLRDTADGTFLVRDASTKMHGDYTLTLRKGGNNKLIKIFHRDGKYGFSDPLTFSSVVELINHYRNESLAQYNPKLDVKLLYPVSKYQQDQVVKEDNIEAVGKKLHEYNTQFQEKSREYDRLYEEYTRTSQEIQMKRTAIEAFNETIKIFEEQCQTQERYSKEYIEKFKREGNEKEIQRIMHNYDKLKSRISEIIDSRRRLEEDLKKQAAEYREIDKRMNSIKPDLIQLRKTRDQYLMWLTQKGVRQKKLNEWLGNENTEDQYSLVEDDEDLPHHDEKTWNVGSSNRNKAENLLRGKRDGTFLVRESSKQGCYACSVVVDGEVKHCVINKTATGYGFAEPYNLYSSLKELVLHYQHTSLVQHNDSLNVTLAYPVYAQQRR

In the case of `Cn1cc(/C=C2\Oc3cccc(O)c3C2=O)c2c(-c3cccc(S(C)(=O)=O)c3)ccnc21` [Compound 75, (2Z)-4-hydroxy-2-({1-methyl-4-[3-(methylsulfonyl)phenyl]-1H-pyrrolo[2,3-b]pyridin-3-yl}methylene)-1-benzofuran-3(2H)-one], the melting point was 310 to 318 °C. The pIC50 at PI3Kα is 7.04. Further, the pIC50 at mTOR is 7.99. In addition, the pIC50 on PI3Kγ is 6.50.
For `Cn1cc(/C=C2\Oc3cccc(O)c3C2=O)c2c(-c3ccc(CO)nc3)ccnc21` [Compound 76, (2Z)-4-hydroxy-2-({4-[6-(hydroxymethyl)pyridin-3-yl]-1-methyl-1H-pyrrolo[2,3-b]pyridin-3-yl}methylene)-1-benzofuran-3(2H)-one], the melting point was in the range of 270 to 275 °C. On PI3Kα, the pIC50 is 7.39. Besides, the pIC50 on mTOR is 8.07. Also, at PI3Kγ, the pIC50 is 6.88.
As to `CC1CN(c2ccnc3c2c(/C=C2\Oc4cccc(O)c4C2=O)cn3C)CC(C)O1` (stereo not drawn) [Compound 93, (2Z)-2-{[4-(2,6-dimethylmorpholin-4-yl)-1-methyl-1H-pyrrolo[2,3-b]pyridin-3-yl]methylene}-4-hydroxy-1-benzofuran-3(2H)-one], the melting point stood at 280 °C. Besides, on PI3Kα, the pIC50 is 7.07. On mTOR, the pIC50 was 8.89. Also, the pIC50 at PI3Kγ was 6.91.
`Cn1cc(/C=C2\Oc3cc(O)cc(O)c3C2=O)c2c(Oc3ccccc3)ccnc21` [Compound 94, (2Z)-4,6-dihydroxy-2-[(1-methyl-4-phenoxy-1H-pyrrolo[2,3-b]pyridin-3-yl)methylene]-1-benzofuran-3(2H)-one] showed a melting point of 330 to 332 °C. For the same molecule, the pIC50 at PI3Kα was 7.37. Moreover, the pIC50 on mTOR is 7.98. The pIC50 at PI3Kγ is 6.45.
As to `Cn1cc(/C=C2\Oc3cccc(O)c3C2=O)c2c(O)ccnc21` [Compound 95, (2Z)-4-hydroxy-2-[(4-hydroxy-1-methyl-1H-pyrrolo[2,3-b]pyridin-3-yl)methylene]-1-benzofuran-3(2H)-one], the melting point was found to be 325 °C. At PI3Kα, the pIC50 is 6.32. The pIC50 at mTOR was 5.70. The negative logarithm of the IC50 (pIC50) at PI3Kγ is 5.49.
Take `CNC(=O)Nc1cccc2c1C(=O)/C(=C/c1cn(C)c3nccc(-c4ccccc4)c13)O2` [Compound 99, 1-methyl-3-{(2Z)-2-[(1-methyl-4-phenyl-1H-pyrrolo[2,3-b]pyridin-3-yl)methylene]-3-oxo-2,3-dihydro-1-benzofuran-4-yl}urea]: the melting point fell in the range of 273 to 275 °C. Moreover, the pIC50 on PI3Kα is under 5.00. Besides, on mTOR, the pIC50 is 5.46. For the same molecule, the pIC50 at PI3Kγ was 5.65.
`CC1CC(C)CN(c2ccnc3c2c(/C=C2\Oc4cccc(O)c4C2=O)cn3C)C1` (stereo not drawn) [Compound 100, (2Z)-2-{[4-(3,5-dimethylpiperidin-1-yl)-1-methyl-1H-pyrrolo[2,3-b]pyridin-3-yl]methylene}-4-hydroxy-1-benzofuran-3(2H)-one] had a melting point of 235 to 240 °C. On PI3Kα, the pIC50 was 6.09. For the same molecule, on mTOR, the pIC50 is 7.82. The pIC50 at PI3Kγ is under 5.00.
As for `Cn1cc(/C=C2\Oc3cccc(O)c3C2=O)c2c(N3CC4CC3CN4)ccnc21` (stereo not drawn) [Compound 101, (2Z)-2-{[4-(2,5-diazabicyclo[2.2.1]hept-2-yl)-1-methyl-1H-pyrrolo[2,3-b]pyridin-3-yl]methylene}-4-hydroxy-1-benzofuran-3(2H)-one], the melting point was found to be 325 °C. Further, the negative-log IC50 (pIC50) at PI3Kα was 7.70. Also, the negative logarithm of the IC50 (pIC50) at mTOR was 7.97. In addition, the pIC50 on PI3Kγ was 6.47.
For `Cn1cc(/C=C2\Oc3cccc(O)c3C2=O)c2c(N3CCSCC3)ccnc21` [Compound 102, (2Z)-4-hydroxy-2-[(1-methyl-4-thiomorpholin-4-yl-1H-pyrrolo[2,3-b]pyridin-3-yl)methylene]-1-benzofuran-3(2H)-one], the melting point was in the range of 285 to 290 °C. Further, on PI3Kα, the pIC50 was 6.98. At mTOR, the pIC50 is 8.72. Further, the pIC50 at PI3Kγ is 6.57.
`Cn1cc(/C=C2\Oc3cccc(O)c3C2=O)c2c(-c3cccc(C(=O)N4CCCC4)c3)ccnc21` [Compound 103, (2Z)-4-hydroxy-2-({1-methyl-4-[3-(pyrrolidin-1-ylcarbonyl)phenyl]-1H-pyrrolo[2,3-b]pyridin-3-yl}methylene)-1-benzofuran-3(2H)-one]: the melting point is 233 to 235 °C. In addition, the negative-log IC50 (pIC50) on PI3Kα was 6.74. On mTOR, the pIC50 is 8.18. At PI3Kγ, the pIC50 is 6.77.
Molecule `Cn1cc(/C=C2\Oc3cccc(O)c3C2=O)c2c(N3CCN(C(=O)N4CCCC4)CC3)ccnc21` [Compound 104, (2Z)-4-hydroxy-2-({1-methyl-4-[4-(pyrrolidin-1-ylcarbonyl)piperazin-1-yl]-1H-pyrrolo[2,3-b]pyridin-3-yl}methylene)-1-benzofuran-3(2H)-one] returned a melting point of 223 to 225 °C. For the same molecule, the pIC50 on PI3Kα was 7.15. Also, the pIC50 at mTOR is 8.54. Besides, the pIC50 at PI3Kγ was 6.61.
For `Cn1cc(/C=C2\Oc3cccc(O)c3C2=O)c2c(N3CC4(C)CC3CC(C)(C)C4)ccnc21` (stereo not drawn) [Compound 105, (2Z)-4-hydroxy-2-{[1-methyl-4-(1,3,3-trimethyl-6-azabicyclo[3.2.1]oct-6-yl)-1H-pyrrolo[2,3-b]pyridin-3-yl]methylene}-1-benzofuran-3(2H)-one], in that order: 220 to 223 °C, under 5.00, 7.16 and under 5.00.
For `Cn1cc(/C=C2\Oc3cccc(O)c3C2=O)c2c(-c3ccc(C(F)(F)F)cc3)ccnc21` [Compound 106, (2Z)-4-hydroxy-2-({1-methyl-4-[4-(trifluoromethyl)phenyl]-1H-pyrrolo[2,3-b]pyridin-3-yl}methylene)-1-benzofuran-3(2H)-one], the melting point lay within 244 to 254 °C. The pIC50 on PI3Kα was 5.22. Besides, the pIC50 at mTOR is 8.13. At PI3Kγ, the pIC50 was under 5.00.
In the case of `Cn1cc(/C=C2\Oc3cccc(O)c3C2=O)c2c(-c3cccc(C(F)(F)F)c3)ccnc21` [Compound 107, (2Z)-4-hydroxy-2-({1-methyl-4-[3-(trifluoromethyl)phenyl]-1H-pyrrolo[2,3-b]pyridin-3-yl}methylene)-1-benzofuran-3(2H)-one], the melting point lay within 262 to 265 °C. Further, the pIC50 at PI3Kα was 6.41. For the same molecule, at mTOR, the pIC50 was 7.91. For the same molecule, at PI3Kγ, the pIC50 was 6.17.
Take `Cn1cc(/C=C2\Oc3cccc(N)c3C2=O)c2c(-c3ccccc3)ccnc21` [Compound 108, (2Z)-4-amino-2-[(1-methyl-4-phenyl-1H-pyrrolo[2,3-b]pyridin-3-yl)methylene]-1-benzofuran-3(2H)-one]: the melting point lay in the range of 262 to 268 °C. Also, at PI3Kα, the pIC50 was 5.21. Moreover, the pIC50 at mTOR is 7.28. Also, the pIC50 on PI3Kγ is under 5.00.
The molecule `Cn1cc(/C=C2\Oc3cccc(O)c3C2=O)c2c(N3CCCC(C(=O)N4CCCC4)C3)ccnc21` (stereo not drawn) [Compound 109, (2Z)-4-hydroxy-2-({1-methyl-4-[3-(pyrrolidin-1-ylcarbonyl)piperidin-1-yl]-1H-pyrrolo[2,3-b]pyridin-3-yl}methylene)-1-benzofuran-3(2H)-one] returned a melting point of 235 to 240 °C. Further, at PI3Kα, the negative-log IC50 (pIC50) is 6.82. Further, the pIC50 at mTOR was 8.36. For the same molecule, the negative logarithm of the IC50 (pIC50) at PI3Kγ was 6.60.
In turn, `Cn1cc(/C=C2\Oc3cccc(O)c3C2=O)c2c(-c3cccc(OC(F)(F)F)c3)ccnc21` [Compound 110, (2Z)-4-hydroxy-2-({1-methyl-4-[3-(trifluoromethoxy)phenyl]-1H-pyrrolo[2,3-b]pyridin-3-yl}methylene)-1-benzofuran-3(2H)-one] had a melting point of 230 to 233 °C. Also, at PI3Kα, the pIC50 is 6.19. Further, the pIC50 on mTOR is 7.08. Further, at PI3Kγ, the pIC50 was under 5.00.
`CN(C)C(=O)c1ccc(-c2ccnc3c2c(/C=C2\Oc4cccc(O)c4C2=O)cn3C)cc1` [Compound 111, 4-{3-[(Z)-(4-hydroxy-3-oxo-1-benzofuran-2(3H)-ylidene)methyl]-1-methyl-1H-pyrrolo[2,3-b]pyridin-4-yl}-N,N-dimethylbenzamide] showed a melting point of 212 to 218 °C. Moreover, the pIC50 at PI3Kα is 7.44. In addition, the pIC50 at mTOR was 9.30. Besides, at PI3Kγ, the pIC50 is 7.18.
In turn, `CN(C)C1CCN(c2ccnc3c2c(/C=C2\Oc4cccc(O)c4C2=O)cn3C)C1` (stereo not drawn) [Compound 112, (2Z)-2-({4-[3-(dimethylamino)pyrrolidin-1-yl]-1-methyl-1H-pyrrolo[2,3-b]pyridin-3-yl}methylene)-4-hydroxy-1-benzofuran-3(2H)-one] registered a melting point of 205 °C. Moreover, the pIC50 on PI3Kα is 6.92. Besides, at mTOR, the pIC50 was 7.41. Moreover, the pIC50 on PI3Kγ was 6.24.
For `CN(C)Cc1ccc(-c2ccnc3c2c(/C=C2\Oc4cccc(O)c4C2=O)cn3C)cc1` [Compound 113, (2Z)-2-[(4-{4-[(dimethylamino)methyl]phenyl}-1-methyl-1H-pyrrolo[2,3-b]pyridin-3-yl)methylene]-4-hydroxy-1-benzofuran-3(2H)-one], in that order: 340 to 350 °C, 7.00, 7.70 and 6.20.
Molecule `Cn1cc(/C=C2\Oc3cccc(O)c3C2=O)c2c(N3CCC(C(N)=O)CC3)ccnc21` [Compound 114, 1-{3-[(Z)-(4-hydroxy-3-oxo-1-benzofuran-2(3H)-ylidene)methyl]-1-methyl-1H-pyrrolo[2,3-b]pyridin-4-yl}piperidine-4-carboxamide] showed a melting point of 280 to 287 °C. Besides, the pIC50 at PI3Kα is 7.54. Also, the pIC50 at mTOR was 9.15. The pIC50 at PI3Kγ is 6.90.

The values above are taken from patent US20090298820A1, “3-SUBSTITUTED-1H-PYRROLO[2,3-B]PYRIDINE AND 3-SUBSTITUTED-1H-PYRROLO[3,2-B]PYRIDINE COMPOUNDS, THEIR USE AS MTOR KINASE AND PI3 KINASE INHIBITORS, AND THEIR SYNTHESES” (Wyeth, priority 2008, published 2009).
